The nature of experiment [1]: Antioxidant activity assessed as inhibition of DPPH free radical at 125 uM after 30 mins relative to control. The format is functional. For orientation: The DPPH test is a chemical assay of radical scavenging.
In the next experiment the target is Cholinesterase (Equus caballus, UniProt P81908). Description: Inhibition of horse serum BChE using butyrylcholine chloride as substrate preincubated for 15 mins followed by substrate addition by spectrophotometric method.
Experiment [2] addresses Cholinesterase (Equus caballus) (UniProt P81908). Description: Inhibition of horse serum BChE at 0.1 mM using butyrylcholine chloride as substrate preincubated for 15 mins followed by substrate addition by spectrophotometric method relative to control.
The target in experiment [3] is Acetylcholinesterase (Electrophorus electricus) (UniProt O42275). Description: Inhibition of electric eel AChE at 0.1 mM using acetylthiocholine iodide as substrate preincubated for 15 mins followed by substrate addition by spectrophotometric method relative to control.
Sequence of Acetylcholinesterase (Electrophorus electricus) (O42275 24-633 limits assumed): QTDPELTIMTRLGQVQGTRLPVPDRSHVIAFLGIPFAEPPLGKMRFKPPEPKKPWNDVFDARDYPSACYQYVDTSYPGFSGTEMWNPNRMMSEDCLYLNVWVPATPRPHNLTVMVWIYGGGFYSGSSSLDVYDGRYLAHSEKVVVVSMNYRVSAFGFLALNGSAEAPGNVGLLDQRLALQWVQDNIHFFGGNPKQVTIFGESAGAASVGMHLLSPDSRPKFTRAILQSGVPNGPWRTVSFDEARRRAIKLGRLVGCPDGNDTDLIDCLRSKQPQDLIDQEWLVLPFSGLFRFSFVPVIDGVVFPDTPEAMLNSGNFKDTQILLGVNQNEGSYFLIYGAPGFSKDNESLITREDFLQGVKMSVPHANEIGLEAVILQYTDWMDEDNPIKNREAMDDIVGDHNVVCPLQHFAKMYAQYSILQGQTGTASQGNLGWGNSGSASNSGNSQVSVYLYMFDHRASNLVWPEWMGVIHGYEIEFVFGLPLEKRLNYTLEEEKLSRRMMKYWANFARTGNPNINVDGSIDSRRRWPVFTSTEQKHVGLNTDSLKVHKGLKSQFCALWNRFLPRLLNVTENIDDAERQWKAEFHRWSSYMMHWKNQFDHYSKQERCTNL
Experiment [4] is described as follows: Antioxidant activity assessed as inhibition of DPPH free radical at 75 uM after 30 mins relative to control. The format is functional.
The nature of experiment [5]: Antioxidant activity assessed as inhibition of DPPH free radical after 30 mins. The format is functional.
In the next experiment the target is Acetylcholinesterase (Electrophorus electricus, UniProt O42275). The experiment can be described thus: Inhibition of electric eel AChE using acetylthiocholine iodide as substrate preincubated for 15 mins followed by substrate addition by spectrophotometric method.
Sequence of Acetylcholinesterase (O42275 whole entry): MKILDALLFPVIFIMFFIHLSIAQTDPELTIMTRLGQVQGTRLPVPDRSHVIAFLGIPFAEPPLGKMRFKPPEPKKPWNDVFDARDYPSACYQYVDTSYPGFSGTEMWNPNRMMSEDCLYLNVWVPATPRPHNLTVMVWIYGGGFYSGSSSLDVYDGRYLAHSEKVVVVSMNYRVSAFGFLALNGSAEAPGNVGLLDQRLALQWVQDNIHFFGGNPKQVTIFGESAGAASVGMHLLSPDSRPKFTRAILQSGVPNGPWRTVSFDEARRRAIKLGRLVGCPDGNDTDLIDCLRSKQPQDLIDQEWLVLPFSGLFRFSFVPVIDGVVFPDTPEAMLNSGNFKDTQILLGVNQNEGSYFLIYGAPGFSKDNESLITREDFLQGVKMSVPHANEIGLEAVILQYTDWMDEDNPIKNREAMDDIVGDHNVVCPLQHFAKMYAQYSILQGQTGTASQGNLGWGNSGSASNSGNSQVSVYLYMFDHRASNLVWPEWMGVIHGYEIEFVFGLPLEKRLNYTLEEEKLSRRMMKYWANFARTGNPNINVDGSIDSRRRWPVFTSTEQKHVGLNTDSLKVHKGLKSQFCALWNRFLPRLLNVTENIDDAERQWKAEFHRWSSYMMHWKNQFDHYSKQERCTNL
Experiment [6] is described as follows: Antioxidant activity assessed as inhibition of DPPH free radical at 100 uM after 30 mins relative to control. It counts as functional.
Experiment [7] can be described thus: Antioxidant activity assessed as inhibition of DPPH free radical at 50 uM after 30 mins relative to control. The format is functional.

The values below come from ChEMBL document CHEMBL4020738, “Antioxidant and anticholinesterase potential of diterpenoid alkaloids from Aconitum heterophyllum” (Bioorg Med Chem, 2017).

Sequence of Cholinesterase (Equus caballus) (P81908 whole entry): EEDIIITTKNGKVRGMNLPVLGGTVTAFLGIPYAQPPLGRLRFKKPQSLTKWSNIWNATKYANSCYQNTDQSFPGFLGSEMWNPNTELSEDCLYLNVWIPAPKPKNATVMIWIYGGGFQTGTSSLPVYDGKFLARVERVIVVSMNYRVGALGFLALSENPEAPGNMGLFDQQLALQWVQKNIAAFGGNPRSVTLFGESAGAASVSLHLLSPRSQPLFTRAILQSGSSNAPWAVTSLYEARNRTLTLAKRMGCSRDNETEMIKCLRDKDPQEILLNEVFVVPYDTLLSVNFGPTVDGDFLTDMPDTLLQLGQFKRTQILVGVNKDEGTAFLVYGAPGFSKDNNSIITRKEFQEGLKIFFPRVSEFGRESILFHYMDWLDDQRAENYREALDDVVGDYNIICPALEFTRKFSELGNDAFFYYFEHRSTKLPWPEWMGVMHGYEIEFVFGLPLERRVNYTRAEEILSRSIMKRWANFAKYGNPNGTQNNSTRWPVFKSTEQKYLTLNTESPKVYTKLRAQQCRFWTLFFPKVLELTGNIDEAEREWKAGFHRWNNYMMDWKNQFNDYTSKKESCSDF
Sequence of Cholinesterase (P81908 whole entry): as above

Regarding `C=C1[C@H]2CC[C@@]3(CC[C@H]4[C@]5(CCC[C@]4(C)C4OCCN4C5)[C@@H]3C2)[C@@H]1O` (stereo partly specified), the inhibition in experiment [1] was 60%; in experiment [2], more than 50%; in experiment [3], more than 50%; in experiment [4], 23.3%; in [5], “Dose-dependent effect”; in experiment [6] it was 49.4%. The inhibition in [7] worked out at 11.8%. Moreover, the IC50 against Cholinesterase was found to be 13.1 µM; on Acetylcholinesterase, 8.4 µM.
Consider `C=C1CC23C[C@H]4[C@@H]5[C@@]6(C)CC[C@H](O)[C@]57C([C@@H]2[C@@H](O)[C@H]1[C@@H](O)[C@@H]37)N4C6`, for which the inhibition was 79.6% in [1]; more than 50% in [2]; more than 50% in [3]; 27% in experiment [4]; “Dose-dependent effect” in experiment [5]; 60.3% in experiment [6]. For the same compound, in [7], the inhibition was 22.5%. Also, the IC50 against Cholinesterase was determined as 9.3 µM; against Acetylcholinesterase, 6.5 µM.
On to `C=C1[C@H]2CC[C@@]3(C(=O)C[C@@H]4[C@@]5(C)CCC[C@@]4(CN(CCO)C5)[C@@H]3C2)[C@@H]1O`, for which the inhibition in [1] is 45%; in experiment [2], more than 50%; in experiment [3] it was more than 50%; in [4], 31.2%; in experiment [5], “Dose-dependent effect”; in experiment [6], 40%. Further, the inhibition in experiment [7] worked out at 20%. The IC50 against Cholinesterase came to 18.1 µM; against Acetylcholinesterase it was 14.6 µM.
In the case of `C=C1[C@H]2C[C@H]3C4N5C[C@]6(C)CCC[C@@]47[C@@H]6[C@@]5(O)CC3([C@@H]1O)[C@@H]7C2`, the inhibition in [1] is 41.2%; in experiment [2], more than 50%; in experiment [3] it was more than 50%; in experiment [4], 25%; in experiment [5], “Dose-dependent effect”; in [6], 36%. For the same compound, in experiment [7], the inhibition was determined as 17%. Also, the figures for the IC50 against Cholinesterase and on Acetylcholinesterase were 16.2 µM and 12.8 µM, respectively.
In the case of `C=C1[C@H]2CC[C@@]3(CC[C@@H]4[C@]5(C)CCC[C@]4(CN4CCO[C@@H]45)[C@@H]3C2)[C@@H]1O`, the inhibition was 55.2% in experiment [1]; more than 50% in [2]; more than 50% in [3]; 30.1% in experiment [4]; “Dose-dependent effect” in experiment [5]; 42.1% in [6]. Also, in [7], the inhibition worked out at 12.3%. For the same compound, the IC50 against Cholinesterase stood at 14.7 µM; against Acetylcholinesterase, 10.3 µM.
With `CCN1C[C@]2(C)CC[C@H](OC)[C@]34C1[C@@](C)([C@@H](OC)[C@H]23)[C@@]1(O)CC[C@H]2C[C@@H]4C1(O)C(=O)O2`, the inhibition in experiment [1] is 38.4%; in experiment [2], more than 50%; in [3], more than 50%; in experiment [4], 28.3%; in [5], “Dose-dependent effect”; in experiment [6], 33.2%. The inhibition in experiment [7] was determined as 22.2%. Further, the results for the half-inhibitory concentration (IC50) at Cholinesterase and against Acetylcholinesterase were 8.6 µM and 5.4 µM, respectively.
For `O=C1O[C@H]([C@@H](O)CO)C(O)=C1O`, the inhibition in [1] worked out at 96%; in experiment [4] it was 85%; in experiment [6] it was 90%; in experiment [7], 75%.
Turning to `C=C1C[C@]23C[C@@H]4[C@@H]5[C@@]6(C)CC(=O)C[C@]57C([C@@H]2[C@@H](O)[C@H]1[C@@H](O)[C@@H]37)N4C6`, the inhibition in [1] is 65.5%; in experiment [2], more than 50%; in [3] it was more than 50%; in experiment [4], 32%; in [5], “Dose-dependent effect”; in [6], 40%. For the same compound, the inhibition in [7] amounted to 12.1%. For the same compound, the IC50 against Cholinesterase is 15.6 µM; at Acetylcholinesterase, 10.1 µM.
On to `CCN1C[C@]2(C)CC[C@H](OC)[C@]34C1[C@H]([C@@H](O)[C@H]23)[C@@]1(O)CC[C@H]2C[C@@H]4[C@@H]1C(=O)O2`, for which the inhibition in experiment [1] was 52.4%; in experiment [2], more than 50%; in [3], more than 50%; in experiment [4], 39.3%; in [5] it was “Dose-dependent effect”; in experiment [6], 47.3%. Besides, in [7], the inhibition was 19.3%. Further, the IC50 against Cholinesterase amounted to 10.4 µM; against Acetylcholinesterase, 6.5 µM.

As usually defined, the inhibition is the percentage by which the read-out fell short of the control. As usually defined, the IC50 is the concentration that inhibits the measured activity by half. Higher therefore signals a need for much substance.
